Test results published in patent US20100190849A1, “Novel Clerodanes and Methods for Repelling Arthropods” (priority 2006, published 2010).
Marks after values point to notes of the source that are not given here.

What was measured:
Aedes aegypti [1] = assay: K & D module mosquito anti-biting (repellent) bioassay; type: in vivo
Description: Insects: Ae. aegypti(L.) (red eye Liverpool strain) and An. stephensi Liston used in the study were from colonies maintained at the Walter Reed Army Institute of Research, Silver Spring, Md. […] Adults were maintained in a photoperiod of 12:12 (L:D) h at 27° C. and 80% RH with cotton pads moistened with 10% aqueous sucrose solution. Mated females were 5-15 d old when they were used in bioassays. Ae. aegypti females had access only to water 24 h and neither food nor water for another 24 h before testing. An. stephensi females were provided with water alone 24 h before testing.
Routinely, a six-celled K & D module containing five mosquitoes/cell was positioned over cloth treatments covering the six blood-membrane wells, and trap doors of the K&D modules were opened to expose the treatments to the sets of mosquitoes. After a 3 minute exposure, the number of mosquitoes biting through cloth treatments in each cell was recorded and mosquitoes were prodded back into the cells. […] Experiments were replicated 12, 18, 32, or 56 times. Thus, 60, 90, 160. or 280 mosquitoes were tested against each treatment depending on the experiment, and the proportion of mosquitoes not biting for each treatment was calculated. For each experiment, conducted in different time periods, logistic regression was used to make two sets of one degree-of-freedom contrasts (t-tests): treatments vs. control and treatments vs. SS220 for anti-biting activity within each experiment. The level of significance was set at P=0.05. In all, we conducted 8 biological experiments, and all experiments used Ae. aegypti as the test mosquito with exception of Experiment 7 which used An. stephensi.
Each experiment was replicated 18 times.
Experiments 3, 4, and 5: In each of these experiments, chromatographic fractions of essential oil at their respective percentage compositions of 100 μg essential oil/cm^2 cloth, 100 μg unfractionated essential oil/cm^2 cloth, 25 nmol SS-220/cm^2 cloth and control were compared for mosquito anti-biting activity. Each experiment was replicated 18 times.
(§1) Experiments 6 and 7: These experiments compared the anti-biting activities of SS-220, and plant-isolated callicarpenal, humulene epoxide II, intermedeol and spathulenol at 25 nmol compound/cm^2 cloth versus control against Ae. aegypti and An. stephensi, respectively. Experiment 6 was replicated 32 times and 7 had 56 replicates
The percentage composition of the mixture was a normalized percentage of active components in C. japonica essential oil based upon GC-MS analysis total ion Area % analysis based on largest peaks. Other treatments in the experiment were SS220, callicarpenal, intermedeol, and spathulenol each at 25 nmol/cm^2 cloth versus control.

Anopheles stephensi = assay: as above; type: in vivo; details: 25 nmol compound/cm^2 cloth; for Proportion Not Biting: Exp. 7, 56 replicates; for repellent activity (in words): Experiment 7
Text: Insects: Ae. aegypti(L.) (red eye Liverpool strain) and An. stephensi Liston used in the study were from colonies maintained at the Walter Reed Army Institute of Research, Silver Spring, Md. The insects were reared by feeding larvae ground tropical fish flakes (Tetramin Tropical Fish Flakes, Tetra Sales, Blacksburg, Va., www.tetra-fish.com)(Gerberg, E. j., et al., Manual for mosquito rearing and experimental techniques. Amer. Mosq. Control Assoc. Bull. No. 5 (revised), 1994, AMCA. inc., Lake Charles, La.). Adults were maintained in a photoperiod of 12:12 (L:D) h at 27° C. and 80% RH with cotton pads moistened with 10% aqueous sucrose solution. Mated females were 5-15 d old when they were used in bioassays. Ae. aegypti females had access only to water 24 h and neither food nor water for another 24 h before testing. An. stephensi females were provided with water alone 24 h before testing.
Mosquito Bioassay Methods: Experiment were conducted by using, a six-celled in vitro Klun & Debboun (K & D) module bioassay system developed by klun et al. (Klum J. A., et al., Journal of the American Mosquito Control Association. 21: 64-70 (2005)) for quantitative, evaluation of mosquito-repellent (anti-biting) properties of candidate repellent compounds for human use.
(§2) Plant extracts, fractions, or isolated pure plant derived compounds in 95% ethanol solution were each randomly applied to six-4×5 cm areas of organdy cloth and positioned over the membrane-covered blood. A replicate consisted of six treatments: four test chemicals or extract fractions, 95% ethanol treated cloth as control and unfractionated plant extract or a standard repellent compound, (1S, 2′S)-2-methylpiperidinyl-3-cyclohexen-1-carboxamide (SS220) at 25 nmol/cm^2 cloth. The 25 nmol SS220/cm^2 cloth dose was used as a standard, because it was known from human volunteer and in vitro assays to consistently suppress mosquito biting by 80% or more compared to controls in replicated assays (Klun, J. A., et al., Journal of the American Mosquito Control Association, 21: 64-70 (2005)). […] Routinely, a six-celled K & D module containing five mosquitoes/cell was positioned over cloth treatments covering the six blood-membrane wells, and trap doors of the K&D modules were opened to expose the treatments to the sets of mosquitoes. After a 3 minute exposure, the number of mosquitoes biting through cloth treatments in each cell was recorded and mosquitoes were prodded back into the cells. In Experiment 8, we retained all mosquitoes in their respective K&D module cells, each fitted with a water-moist piece of cotton, and observed the mosquitoes for total mosquito toxic knockdown at 6 min, 1 hr, and 24 hr post-treatment exposure. Experiments were replicated 12, 18, 32, or 56 times. Thus, 60, 90, 160. or 280 mosquitoes were tested against each treatment depending on the experiment, and the proportion of mosquitoes not biting for each treatment was calculated. For each experiment, conducted in different time periods, logistic regression was used to make two sets of one degree-of-freedom contrasts (t-tests): treatments vs. control and treatments vs. SS220 for anti-biting activity within each experiment. The level of significance was set at P=0.05. In all, we conducted 8 biological experiments, and all experiments used Ae. aegypti as the test mosquito with exception of Experiment 7 which used An. stephensi.
as §1

Aedes aegypti [2] = assay: Total mosquito toxic knockdown after K & D module exposure (Experiment 8); type: in vivo; details: Exp. 8, 25 nmol/cm^2 cloth; for Total Knock down 6 min: dead mosquitoes 6 min post-treatment exposure; for Total knock down 1 hr: dead mosquitoes 1 hr post-treatment exposure; for Total knock down 24 hr: dead mosquitoes 24 hr post-treatment exposure
Text: as §2
Experiment 8: This experiment (12 replicates) compared the antibiting activities of a mixture (25 nmol/cm^2 cloth) of 11.5% callicarpenal, 47.1% intermedeol, and 41.4% spathulenol. The percentage composition of the mixture was a normalized percentage of active components in C. japonica essential oil based upon GC-MS analysis total ion Area % analysis based on largest peaks. Other treatments in the experiment were SS220, callicarpenal, intermedeol, and spathulenol each at 25 nmol/cm^2 cloth versus control. In addition to measurement of anti-biting activity, the number of dead mosquitoes observed at three time intervals were recorded for the six treatments.

mosquito = details: 25 nmol SS220/cm^2 cloth; replicated assays; cited from earlier work
An. stephensi = details: in vivo; cited from earlier work
Aedes aegypti [3] = details: in vivo; cited from earlier work
[4] = Table 7, Example 2, synthetic compounds, dose not given
[5] = Exp. 6, 25 nmol compound/cm^2 cloth, 32 replicates
[6] = Exp. 8, 25 nmol/cm^2 cloth, 12 replicates
[7] = Experiment 6, 25 nmol compound/cm^2 cloth
[8] = Table 8, Example 3, synthetic compounds, dose not given

Compound: CC1=CCC[C@@H]2[C@@](C)(CCO)[C@H](C)CC[C@@]12C [13,14,15,16-tetranorclerod-3-en-12-ol]
- biting deterrent efficacy (in words) (Aedes aegypti [1]; Example 2, Table 7): equivalent to both callicarpenal and picaridin
- Proportion Not Biting (Aedes aegypti [1]; [4]): 0.68^b

Compound: C[C@H]1CCCCN1C(=O)[C@@H]1CC=CCC1 [SS220, (1S, 2′S)-2-methylpiperidinyl-3-cyclohexen-1-carboxamide, reference compound]
- Proportion Not Biting (Aedes aegypti [1]; Exp. 1, 25 nmole/cm^2 cloth, 3 minute exposure): 0.81^c
- Proportion Not Biting (Aedes aegypti [1]; Exp. 2, 25 nmole/cm^2 cloth): 0.90^c
- Proportion Not Biting (Aedes aegypti [1]; Exp. 3, 25 nmole/cm^2): 1.00^c
- Proportion Not Biting (Aedes aegypti [1]; Exp. 4, 25 nmole/cm^2): 0.92^c
- Proportion Not Biting (Aedes aegypti [1]; Exp. 5, 25 nmole/cm^2): 0.95^c
- Proportion Not Biting (Aedes aegypti [1]; [5]): 0.80^c
- Proportion Not Biting (Aedes aegypti [1]; [6]): 0.67^c
- Proportion Not Biting (Anopheles stephensi): 0.78^c
- Total Knock down 6 min (Aedes aegypti [2]): 0
- Total knock down 1 hr (Aedes aegypti [2]): 1
- Total knock down 24 hr (Aedes aegypti [2]): 2
- suppression of mosquito biting compared to controls (mosquito): ≥ 80%
- repellent activity compared with bench mark repellents (in words) (An. stephensi): equivalent to bench mark repellent compounds Deet and Bayrepel
- repellent activity compared with bench mark repellents (in words) (Aedes aegypti [3]): more effective than Bayrepel

Compound: C/C1=C\CC(C)(C)/C=C/C[C@@]2(C)O[C@@H]2CC1 [humulene epoxide II]
- Proportion Not Biting (Aedes aegypti [1]; [5]): 0.48^a
- repellent activity (in words) (Aedes aegypti [1]; [7]): no repellent activity
- Proportion Not Biting (Anopheles stephensi): 0.58^a
- repellent activity (in words) (Anopheles stephensi): not different from the control

Compound: CCC(C)OC(=O)N1CCCCC1CCO (stereo not shown) [picaridin, 2-(2-hydroxyethyl)-1piperidinecarboxylic acid 1-methylpropyl ester, reference compound]
- Proportion Not Biting (Aedes aegypti [1]; [4]): 0.62^b

Compound: C=C1CC[C@@H]2[C@H]([C@H]3[C@H]1CC[C@]3(C)O)C2(C)C [spathulenol, (1R,4S,5R,6R,7R)-aromadendr-10(14)-en-4-ol]
- Proportion Not Biting (Aedes aegypti [1]; [5]): 0.73^c
- Proportion Not Biting (Aedes aegypti [1]; [6]): 0.48^b
- repellent activity (in words) (Aedes aegypti [1]; [7]): equally active
- repellent activity (in words) (Aedes aegypti [1]; Experiment 8, 25 nmol/cm^2 cloth): significantly different from the control
- Proportion Not Biting (Anopheles stephensi): 0.75^c
- repellent activity (in words) (Anopheles stephensi): as effective as SS220
- Total Knock down 6 min (Aedes aegypti [2]): 1
- Total knock down 1 hr (Aedes aegypti [2]): 2
- Total knock down 24 hr (Aedes aegypti [2]): 0

Compound: C[C@@H]1CC[C@]2(C)[C@H](CC[C@@H]3O[C@@]32C)[C@@]1(C)CC=O [β-epoxycallicarpenal]
- biting deterrent efficacy (in words) (Aedes aegypti [1]; Example 3, Table 8): equivalent to callicarpenal
- Proportion Not Biting (Aedes aegypti [1]; [8]): 0.70^b

Compound: α-epoxycallicarpenal
- biting deterrent efficacy (in words) (Aedes aegypti [1]; Example 3, Table 8): equivalent to callicarpenal
- Proportion Not Biting (Aedes aegypti [1]; [8]): 0.68^b
